Experimental data reported in patent publication US8569311B2, “Pyridyl piperidine orexin receptor antagonists” (Merch Sharp & Dohme Corp., priority 2007, dated 2013).

Legend:
OX2R = OX2R (Homo sapiens (Human), UniProt O43614); test: radioligand binding assay, OX2 receptor; conditions: membranes prepared from CHO cells expressing the OX2 receptor
Protocol: (§1) The utility of the compounds in accordance with the present invention as orexin receptor OX1R and/or OX2R antagonists may be readily determined without undue experimentation by methodology well known in the art, including the “FLIPR Ca^2+ Flux Assay” (Okumura et al., Biochem. Biophys. Res. Comm 280:976-981, 2001). In a typical experiment the OX1 and OX2 receptor antagonistic activity of the compounds of the present invention was determined in accordance with the following experimental method. For intracellular calcium measurements, Chinese hamster ovary (CHO) cells expressing the rat orexin-1 receptor or the human orexin-2 receptor, are grown in Iscove's modified DMEM containing 2 mM L-glutamine, […], 1% hypoxanthine-thymidine supplement, 100 U/ml penicillin, 100 ug/ml streptomycin and 10% heat-inactivated fetal calf serum (FCS). The cells are seeded at 20,000 cells/well into Becton-Dickinson black 384-well clear bottom sterile plates coated with poly-D-lysine. All reagents were from GIBCO-Invitrogen Corp. The seeded plates are incubated overnight at 37° C. and 5% CO2. Ala-6,12 human orexin-A as the agonist is prepared as a 1 mM stock solution in 1% bovine serum albumin (BSA) and diluted in assay buffer (HBSS containing 20 mM HEPES, 0.1% BSA and 2.5 mM probenecid, pH7.4) for use in the assay at a final concentration of 70 pM. Test compounds are prepared as 10 mM stock solution in DMSO, then diluted in 384-well plates, first in DMSO, then assay buffer. On the day of the assay, cells are washed 3 times with 100 ul assay buffer and then incubated for 60 min (37° C., 5% CO2) in 60 ul assay buffer containing 1 uM Fluo-4AM ester, 0.02% pluronic acid, and 1% BSA. The dye loading solution is then aspirated and cells are washed 3 times with 100 ul assay buffer. 30 ul of that same buffer is left in each well. Within the Fluorescent Imaging Plate Reader (FLIPR, Molecular Devices), test compounds are added to the plate in a volume of 25 ul, incubated for 5 min and finally 25 ul of agonist is added. Fluorescence is measured for each well at 1 second intervals for 5 minutes and the height of each fluorescence peak is compared to the height of the fluorescence peak induced by 70 pM Ala-6,12 orexin-A with buffer in place of antagonist. For each antagonist, IC50 value (the concentration of compound needed to inhibit 50% of the agonist response) is determined. Alternatively, compound potency can be assessed by a radioligand binding assay (described in Bergman et. al. Bioorg. Med. Chem. Lett. 2008, 18, 1425-1430) in which the inhibition constant (Ki) is determined in membranes prepared from CHO cells expressing either the OX1 or OX2 receptor. The intrinsic orexin receptor antagonist activity of a compound which may be used in the present invention may be determined by these assays.

OX1R = OX1R (Rattus norvegicus, UniProt P56718); test: radioligand binding assay, OX1 receptor; conditions: membranes prepared from CHO cells expressing the OX1 receptor
Sequence of OX1R (P56718 whole entry, looked up): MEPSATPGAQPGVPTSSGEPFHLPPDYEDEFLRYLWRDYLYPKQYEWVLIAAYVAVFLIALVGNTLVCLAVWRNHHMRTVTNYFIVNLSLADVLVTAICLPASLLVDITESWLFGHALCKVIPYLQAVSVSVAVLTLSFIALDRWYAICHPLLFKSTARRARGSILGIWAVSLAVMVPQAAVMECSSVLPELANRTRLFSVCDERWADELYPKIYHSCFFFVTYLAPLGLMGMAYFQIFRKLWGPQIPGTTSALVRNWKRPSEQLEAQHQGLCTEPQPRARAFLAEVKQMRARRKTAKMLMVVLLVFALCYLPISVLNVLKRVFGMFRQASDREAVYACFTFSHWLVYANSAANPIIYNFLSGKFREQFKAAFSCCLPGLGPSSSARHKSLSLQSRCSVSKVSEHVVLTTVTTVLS
Protocol: as §1

Sequence of OX2R (O43614 whole entry): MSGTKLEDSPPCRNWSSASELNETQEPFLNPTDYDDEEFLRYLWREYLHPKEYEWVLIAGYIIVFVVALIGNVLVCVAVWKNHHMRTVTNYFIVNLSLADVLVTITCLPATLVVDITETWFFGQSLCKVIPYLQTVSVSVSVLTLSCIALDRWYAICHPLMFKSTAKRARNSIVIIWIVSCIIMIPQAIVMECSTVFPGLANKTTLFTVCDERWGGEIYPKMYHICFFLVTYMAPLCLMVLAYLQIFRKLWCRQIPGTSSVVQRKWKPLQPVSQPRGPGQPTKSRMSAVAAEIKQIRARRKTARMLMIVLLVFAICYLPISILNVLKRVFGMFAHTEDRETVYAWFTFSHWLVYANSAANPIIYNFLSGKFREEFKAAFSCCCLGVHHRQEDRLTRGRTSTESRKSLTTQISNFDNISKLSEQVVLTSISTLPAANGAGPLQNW

SMILES	Ki (OX2R)	Ki (OX1R)
Cc1ccc(-c2nccs2)c(C(=O)N2C[C@H](COc3ccc(F)cn3)CC[C@H]2C)c1 [Compound 1-1, 5-fluoro-2-({(3R,6R)-6-methyl-1-[5-methyl-2-(1,3-thiazol-2-yl)benzoyl]piperidin 3-yl}methoxy)pyridine]	0.24 nM	1.8 nM
C[C@@H]1CC[C@@H](COc2ccc(F)cn2)CN1C(=O)c1ccccc1-n1nccn1 [Compound 1-4, 5-fluoro-2-({(3R,6R)-6-methyl-1-[2-(2H-1,2,3-triazol-2-yl)benzoyl]piperidin-3-yl}methoxy)pyridine]	0.37 nM	12 nM
C[C@@H]1CC[C@@H](COc2ccc(F)cn2)CN1C(=O)c1cc(F)ccc1-n1nccn1 [Compound 1-8, 5-fluoro-2-({(3R,6R)-1-[5-fluoro-2-(2H-1,2,3-triazol-2-yl)benzoyl]-6-methylpiperidin-3-yl}methoxy)pyridine]	0.5 nM	6.8 nM
Cc1ccc(-c2ccccc2)c(C(=O)N2C[C@H](COc3ccc(F)cn3)CC[C@H]2C)c1 [Compound 1-10, 5-fluoro-2-({(3R,6R)-6-methyl-1-[(4-methylbiphenyl-2-yl)carbonyl]piperidin-3-yl}methoxy)pyridine]	0.08 nM	0.71 nM
Cc1ccc(-c2ccccn2)c(C(=O)N2C[C@H](COc3ccc(F)cn3)CC[C@H]2C)c1 [Compound 1-15, 5-fluoro-2-{[(3R,6R)-6-methyl-1-(5-methyl-2-pyridin-2-ylbenzoyl)piperidin-3-yl}methoxy}pyridine]	0.35 nM	3.2 nM
C[C@@H]1CC[C@@H](COc2ccc(F)cn2)CN1C(=O)c1cc(F)ccc1-c1ncccn1 [Compound 1-19, 2-{4-fluoro-2-[((2R,5R)-5-{[(5-fluoropyridin-2-yl)oxy]methyl}-2-methylpiperidin-1-yl)carbonyl]phenyl}pyrimidine]	0.53 nM	10 nM
Cc1ccc(-c2cn[nH]c2)c(C(=O)N2C[C@H](COc3ccc(F)cn3)CC[C@H]2C)c1 [Compound 1-21, 5-fluoro-2-({(3R,6R)-6-methyl-1-[5-methyl-2-(1H-pyrazol-4-yl)benzoyl]piperidin-3-yl}methoxy)pyridine]	0.48 nM	7.1 nM
CCOc1ccccc1C(=O)N1C[C@H](COc2ccc(F)cn2)CC[C@H]1C [Compound 1-24, 2-{[(3R,6R)-1-(2-ethoxybenzoyl)-6-methylpiperidin-3-yl]methoxy}-5-fluoropyridine]	1.7 nM	36 nM
C[C@@H]1CC[C@@H](COc2ccc(F)cn2)CN1C(=O)c1cccc2cc[nH]c12 [Compound 1-27, 7-[((2R,5R)-5-{[(5-fluoropyridin-2-yl)oxy]methyl}-2-methylpiperidin-1-yl)carbonyl]-1H-indole]	10 nM	75 nM
C[C@@H]1CC[C@@H](COc2ccc(F)cn2)CN1C(=O)c1ccccc1-c1ncccn1 [Compound 1-28, 2-{2-[((2R,5R)-5-{[(5-fluoropyridin-2-yl)oxy]methyl}-2-methylpiperidin-1-yl)carbonyl]phenyl}pyrimidine]	0.67 nM	17 nM
C[C@@H]1CC[C@@H](COc2ccc(F)cn2)CN1C(=O)c1c(F)cccc1-c1ncccn1 [Compound 1-34, 2-{3-fluoro-2-[((2R,5R)-5-{[(5-fluoropyridin-2-yl)oxy]methyl}-2-methylpiperidin-1-yl)carbonyl]phenyl}pyrimidine]	0.68 nM	8.2 nM
C[C@@H]1CC[C@@H](COc2ccc(F)cn2)CN1C(=O)c1ccccc1-n1cccn1 [Compound 1-37, 5-fluoro-2-({(3R,6R)-6-methyl-1-[2-(1H-pyrazol-1-yl)benzoyl]piperidin-3-yl}methoxy)pyridine]	1.5 nM	55 nM
C[C@@H]1CC[C@@H](COc2ccc(F)cn2)CN1C(=O)c1ncccc1-c1ccccc1 [Compound 1-38, 2-[((2R,5R)-5-{[(5-fluoropyridin-2-yl)oxy]methyl}-2-methylpiperidin-1-yl)carbonyl]-3-phenylpyridine]	1.9 nM	86 nM
C[C@@H]1CC[C@@H](COc2ccc(Br)nc2)CN1C(=O)c1ccccc1-n1nccn1 [Compound 1-42, 2-bromo-5-({(3R,6R)-6-mcthyl-1-[2-(2H-1,2,3-triazol-2-yl)benzoyl]piperidin-3-yl}methoxy)pyridine]	3.8 nM	64 nM
C[C@@H]1CC[C@@H](COc2ccnc(Cl)c2)CN1C(=O)c1ccccc1-n1nccn1 [Compound 1-43, 2-chloro-4-({(3R,6R)-6-methyl-1-[2-(2H-1,2,3-triazol-2-yl)benzoyl]piperidin-3-yl}methoxy)pyridine]	22 nM	140 nM
Cc1ccc(-n2nccn2)c(C(=O)N2CCCC(COc3ccc(F)nc3)C2)c1 (stereo not drawn) [Compound 2-1]	29 nM	96 nM
Cc1ccc(-n2nccn2)c(C(=O)N2C[C@H](COc3ccc(F)cn3)CC[C@H]2C)c1 [Compound A-9, 5-Fluoro-2-({(3R,6R)-6-methyl-1-[5-methyl-2-(2H-1,2,3-triazol-2-yl)benzoyl]piperidin-3-yl}methoxy)pyridine]	0.24 nM	1 nM
Cc1ccc(-c2cnccn2)c(C(=O)N2C[C@H](COc3ccc(F)cn3)CC[C@H]2C)c1 [Compound B-3, 2-{2-[((2R,5R)-5-{[(5-Fluoropyridin-2-yl)oxy]methyl}-2-methylpiperidin-1-yl)carbonyl]-4-methylphenyl}pyrazine]	0.54 nM	3.3 nM
Cc1cccc(OC[C@@H]2CC[C@@H](C)N(C(=O)c3ccccc3-n3nccn3)C2)n1 [Compound C-4, 2-Methyl-6-({(3R,6R)-6-methyl-1-[2-(2H-1,2,3-triazol-2-yl)benzoyl]piperidin-3-yl}methoxy)pyridine]	0.67 nM	22 nM
Cc1ccc(-c2ncccn2)c(C(=O)N2C[C@H](COc3ccc(F)cn3)CC[C@H]2C)c1 [Compound E-5, 2-{2-[((2R,5R)-5-{[(5-Fluoropyridin-2-yl)oxy]methyl}-2-methylpiperidin-1-yl)carbonyl]-4-methylphenyl}pyrimidine]	0.31 nM	2.9 nM
C[C@@H]1CC[C@@H](COc2ccc(F)cn2)CN1C(=O)c1cc(C(=O)O)ccc1-n1nccn1 [Compound F-4, 3-[((2R,5R)-5-{[(5-Fluoropyridin-2-yl)oxy]methyl}-2-methylpiperidin-1-yl)carbonyl]-4-(2H-1,2,3-triazol-2-yl)benzoic acid]	410 nM	260 nM
C[C@@H]1CC[C@@H](COc2ccc(F)cn2)CN1C(=O)c1cc(CO)ccc1-n1nccn1 [Compound G-1, [3-[((2R,5R)-5-{[(5-Fluoropyridin-2-yl)oxy]methyl}-2-methylpiperidin-1-yl)carbonyl]-4-(2H-1,2,3-triazol-2-yl)phenyl]methanol]	1.7 nM	14 nM
C[C@@H]1CC[C@@H](COc2ccc(F)cn2)CN1C(=O)c1cc(C(=O)O)ccc1-c1ncccn1 [Compound H-4, 3-[((2R,5R)-5-{[(5-fluoropyridin-2-yl)oxy]methyl}-2-methylpiperidin-1-yl)carbonyl]-4-pyrimidin-2-ylbenzoic acid]	37 nM	84 nM
C[C@@H]1CC[C@@H](COc2ccc(F)cn2)CN1C(=O)c1cc(CO)ccc1-c1ncccn1 [Compound I-7, {3-[((2R,5R)-5-{[(5-Fluoropyridin-2-yl)oxy]methyl}-2-methylpiperidin-1-yl)carbonyl]-4-pyrimidin-2-ylphenyl}methanol]	2 nM	30 nM
